The record followed here is patent US12612374B2, “Thiazole and diphenyl substituted sulfoxides for use in improving cognition functions and against addictions to substances” (Cogmotiv FlexCo, priority 2019, dated 2026).

SMILES strings stand for the structures.

Usually IC50 stands for the midpoint of a concentration-inhibition curve.

For the assay, the target named is T1, human NET (Homo sapiens, UniProt P23975).
T1 construct: expressed in transfected cells
T1 sequence (P23975 whole entry): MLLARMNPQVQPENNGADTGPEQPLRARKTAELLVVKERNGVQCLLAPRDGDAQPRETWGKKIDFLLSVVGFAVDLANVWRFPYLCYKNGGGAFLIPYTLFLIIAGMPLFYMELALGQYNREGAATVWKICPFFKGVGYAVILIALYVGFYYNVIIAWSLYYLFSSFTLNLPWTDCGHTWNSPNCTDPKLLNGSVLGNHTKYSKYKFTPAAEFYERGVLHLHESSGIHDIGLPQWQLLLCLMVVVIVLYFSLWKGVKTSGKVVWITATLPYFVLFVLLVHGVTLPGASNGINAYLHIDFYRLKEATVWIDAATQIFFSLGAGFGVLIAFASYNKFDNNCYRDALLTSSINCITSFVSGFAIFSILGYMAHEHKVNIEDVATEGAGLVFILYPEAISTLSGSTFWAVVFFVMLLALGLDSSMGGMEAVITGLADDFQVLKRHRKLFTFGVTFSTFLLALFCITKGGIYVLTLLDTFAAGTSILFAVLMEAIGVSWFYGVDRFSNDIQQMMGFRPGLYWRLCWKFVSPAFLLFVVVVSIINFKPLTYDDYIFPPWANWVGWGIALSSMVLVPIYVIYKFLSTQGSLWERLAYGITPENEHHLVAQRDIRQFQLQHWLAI
Briefly: Monoamine transporter reuptake inhibition, [3H]-MPP+ uptake (NET). Type of assay: cell-based. The conditions noted are these: HEK 293 stably expressing human NET; 0.02 μM [3H]-MPP+, 3 min; means of at least three independent experiments; NS = Not specific in the used concentration range; read-out: NET IC50 ± SD.
On to `[O-][S@@+](Cc1cncs1)[C@@H](c1ccccc1)c1cccc(Br)c1` (single isomer, unassigned) [Compound 1_1], for which the IC50 was determined as 11.7 ± 7.3 µM.

As to `[O-][S+](Cc1cncs1)C(c1ccccc1)c1cccc(Br)c1` (mixture of isomers) [(R), 5-((((3-bromophenyl)(phenyl)methyl)sulfinyl)methyl)thiazole], the IC50 came to 17.2 ± 4.5 µM.

For `[O-][S@+](Cc1cncs1)[C@H](c1ccccc1)c1cccc(Br)c1` [Compound 2_2], the IC50 came out at 13.9 ± 15.9 µM.

Consider `[O-][S@+](Cc1cncs1)[C@@H](c1ccccc1)c1cccc(Br)c1` [Compound 1_2], for which the IC50 was 148 ± 68.4 µM.
